From ChEMBL document CHEMBL4507291 (2021)

What was measured:
[1] = target: Calcium/calmodulin-dependent protein kinase type II subunit beta (Homo sapiens) (UniProt Q13554)
[2] = target: Cyclin-dependent kinase 3 (Homo sapiens) (UniProt Q00526)
[3] = system: Phosphatidylinositol 4,5-bisphosphate 3-kinase catalytic subunit alpha isoform (Homo sapiens), P42336 [H1047L]
[4] = target: T1, MAP/microtubule affinity-regulating kinase 4 (Homo sapiens) (UniProt Q96L34)
T1 sequence (whole entry): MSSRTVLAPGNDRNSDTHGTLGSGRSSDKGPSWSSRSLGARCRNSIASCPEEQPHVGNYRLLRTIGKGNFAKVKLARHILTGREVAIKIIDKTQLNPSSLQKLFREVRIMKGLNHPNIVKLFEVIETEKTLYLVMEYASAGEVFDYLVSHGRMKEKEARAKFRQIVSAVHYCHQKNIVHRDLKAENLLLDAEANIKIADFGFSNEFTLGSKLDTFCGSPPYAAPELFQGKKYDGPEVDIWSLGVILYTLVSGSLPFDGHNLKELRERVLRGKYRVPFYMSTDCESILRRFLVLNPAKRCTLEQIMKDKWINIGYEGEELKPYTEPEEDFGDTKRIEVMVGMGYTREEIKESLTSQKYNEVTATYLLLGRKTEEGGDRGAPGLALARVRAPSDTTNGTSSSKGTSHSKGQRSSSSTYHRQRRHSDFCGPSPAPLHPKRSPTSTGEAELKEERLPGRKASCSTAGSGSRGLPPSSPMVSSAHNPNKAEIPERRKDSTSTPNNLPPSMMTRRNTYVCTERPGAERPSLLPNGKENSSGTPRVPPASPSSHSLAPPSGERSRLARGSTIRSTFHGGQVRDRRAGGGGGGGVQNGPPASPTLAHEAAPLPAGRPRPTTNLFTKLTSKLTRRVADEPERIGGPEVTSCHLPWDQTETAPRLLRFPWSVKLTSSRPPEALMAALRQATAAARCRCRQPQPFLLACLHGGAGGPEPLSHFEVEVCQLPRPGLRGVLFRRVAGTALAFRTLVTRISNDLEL

[5] = target: Mitogen-activated protein kinase 8 (Homo sapiens) (UniProt P45983)
[6] = target: Myosin-IIIa (Homo sapiens) (UniProt Q8NEV4)
[7] = target: T2, Serine/threonine-protein kinase Nek2 (Homo sapiens) (UniProt P51955)
T2 sequence (whole entry): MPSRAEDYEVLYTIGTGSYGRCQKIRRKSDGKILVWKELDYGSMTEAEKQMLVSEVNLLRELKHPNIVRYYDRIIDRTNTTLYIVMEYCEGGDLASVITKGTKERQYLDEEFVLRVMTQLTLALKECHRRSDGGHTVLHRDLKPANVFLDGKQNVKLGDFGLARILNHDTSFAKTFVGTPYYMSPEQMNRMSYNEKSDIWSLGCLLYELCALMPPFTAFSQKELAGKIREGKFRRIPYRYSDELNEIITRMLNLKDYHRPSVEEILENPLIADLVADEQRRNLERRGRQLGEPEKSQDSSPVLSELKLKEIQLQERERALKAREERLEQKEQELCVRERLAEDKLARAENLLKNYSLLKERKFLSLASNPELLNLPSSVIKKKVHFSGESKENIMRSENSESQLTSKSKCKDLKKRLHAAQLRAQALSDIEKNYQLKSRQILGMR

[8] = system: Phosphatidylinositol 4,5-bisphosphate 3-kinase catalytic subunit alpha isoform (Homo sapiens), P42336 [Q546K]
[9] = target: T3, Serine/threonine-protein kinase Sgk2 (Homo sapiens) (UniProt Q9HBY8)
T3 sequence (whole entry): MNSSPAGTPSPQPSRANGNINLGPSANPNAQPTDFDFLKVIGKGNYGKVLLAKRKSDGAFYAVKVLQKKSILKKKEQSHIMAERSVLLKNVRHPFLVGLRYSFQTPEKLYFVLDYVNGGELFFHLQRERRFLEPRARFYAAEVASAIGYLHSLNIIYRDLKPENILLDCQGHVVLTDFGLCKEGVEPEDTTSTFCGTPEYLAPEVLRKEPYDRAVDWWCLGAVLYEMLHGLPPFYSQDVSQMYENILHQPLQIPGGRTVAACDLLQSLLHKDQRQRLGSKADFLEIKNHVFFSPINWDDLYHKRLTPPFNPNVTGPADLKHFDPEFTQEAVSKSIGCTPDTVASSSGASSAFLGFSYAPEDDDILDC

[10] = target: Serine/threonine-protein kinase tousled-like 2 (Homo sapiens) (UniProt Q86UE8)
[11] = target: Ribosomal protein S6 kinase alpha-1 (Homo sapiens) (UniProt Q15418)
[12] = system: Mast/stem cell growth factor receptor Kit (Homo sapiens), P10721 [D816V]
[13] = target: T4, Serine/threonine-protein kinase 17A (Homo sapiens) (UniProt Q9UEE5)
T4 sequence (whole entry): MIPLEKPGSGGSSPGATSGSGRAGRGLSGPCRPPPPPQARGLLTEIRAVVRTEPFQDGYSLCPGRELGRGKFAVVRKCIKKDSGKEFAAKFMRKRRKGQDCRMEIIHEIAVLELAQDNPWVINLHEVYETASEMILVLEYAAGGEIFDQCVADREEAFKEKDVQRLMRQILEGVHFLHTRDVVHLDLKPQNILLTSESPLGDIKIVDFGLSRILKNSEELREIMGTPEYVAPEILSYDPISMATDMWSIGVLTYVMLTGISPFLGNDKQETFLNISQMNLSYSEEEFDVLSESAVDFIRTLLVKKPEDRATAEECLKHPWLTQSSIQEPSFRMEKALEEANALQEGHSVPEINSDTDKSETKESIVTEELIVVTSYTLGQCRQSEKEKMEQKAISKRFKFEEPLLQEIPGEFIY

[14] = target: 3-phosphoinositide-dependent protein kinase 1 (Homo sapiens) (UniProt O15530)
[15] = system: Mast/stem cell growth factor receptor Kit (Homo sapiens), P10721 [L576P]
[16] = target: Transient receptor potential cation channel subfamily M member 6 (Homo sapiens) (UniProt Q9BX84)
[17] = target: Mitogen-activated protein kinase 14 (Homo sapiens) (UniProt Q16539)
[18] = target: Cyclin-dependent kinase 14 (Homo sapiens) (UniProt O94921)
[19] = Compound concentration 1000.0 nM
[20] = Compound concentration 100.0 nM

3-phosphoinositide-dependent protein kinase 1 (Homo sapiens), sequence (O15530 whole entry): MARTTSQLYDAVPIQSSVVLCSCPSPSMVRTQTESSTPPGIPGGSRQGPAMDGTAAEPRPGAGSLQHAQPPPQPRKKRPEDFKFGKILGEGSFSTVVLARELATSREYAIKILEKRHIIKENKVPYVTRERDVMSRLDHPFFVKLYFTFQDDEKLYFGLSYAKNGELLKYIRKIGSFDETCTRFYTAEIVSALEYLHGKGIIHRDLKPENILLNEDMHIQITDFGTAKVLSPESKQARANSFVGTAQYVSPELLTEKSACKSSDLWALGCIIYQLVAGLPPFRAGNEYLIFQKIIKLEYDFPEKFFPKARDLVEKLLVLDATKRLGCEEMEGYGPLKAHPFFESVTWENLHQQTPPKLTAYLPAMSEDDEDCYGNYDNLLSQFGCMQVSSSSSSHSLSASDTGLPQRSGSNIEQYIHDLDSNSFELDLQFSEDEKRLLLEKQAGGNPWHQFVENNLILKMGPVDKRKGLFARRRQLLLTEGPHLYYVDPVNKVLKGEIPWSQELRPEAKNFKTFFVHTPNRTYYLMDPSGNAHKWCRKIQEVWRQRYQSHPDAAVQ
Mast/stem cell growth factor receptor Kit (Homo sapiens), P10721 [D816V], sequence (P10721 whole entry D816V): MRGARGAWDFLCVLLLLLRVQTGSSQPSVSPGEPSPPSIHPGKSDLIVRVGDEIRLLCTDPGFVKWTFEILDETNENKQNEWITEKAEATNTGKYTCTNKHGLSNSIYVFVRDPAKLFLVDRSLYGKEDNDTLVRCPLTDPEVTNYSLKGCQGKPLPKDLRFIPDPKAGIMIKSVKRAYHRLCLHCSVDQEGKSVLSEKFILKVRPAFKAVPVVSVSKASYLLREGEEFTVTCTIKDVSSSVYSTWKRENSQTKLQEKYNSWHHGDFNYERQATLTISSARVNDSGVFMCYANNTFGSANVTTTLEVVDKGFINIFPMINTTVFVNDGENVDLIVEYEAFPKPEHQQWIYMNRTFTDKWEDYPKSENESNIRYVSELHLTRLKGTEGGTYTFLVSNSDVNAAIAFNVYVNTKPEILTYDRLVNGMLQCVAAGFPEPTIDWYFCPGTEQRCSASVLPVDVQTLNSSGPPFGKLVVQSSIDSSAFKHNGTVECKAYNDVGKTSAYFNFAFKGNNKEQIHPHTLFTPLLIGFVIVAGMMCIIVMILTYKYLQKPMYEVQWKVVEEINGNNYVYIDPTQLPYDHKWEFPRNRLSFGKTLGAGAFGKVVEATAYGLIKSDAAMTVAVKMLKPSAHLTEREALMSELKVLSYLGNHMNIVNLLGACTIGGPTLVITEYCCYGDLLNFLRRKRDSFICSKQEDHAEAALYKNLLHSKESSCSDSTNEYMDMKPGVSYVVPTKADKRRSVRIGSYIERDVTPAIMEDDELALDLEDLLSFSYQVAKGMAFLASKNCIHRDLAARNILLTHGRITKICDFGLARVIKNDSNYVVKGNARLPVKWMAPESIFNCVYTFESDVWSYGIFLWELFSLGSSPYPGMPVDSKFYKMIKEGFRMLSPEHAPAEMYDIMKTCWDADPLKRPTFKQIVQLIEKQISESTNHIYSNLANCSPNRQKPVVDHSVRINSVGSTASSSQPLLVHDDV
Mitogen-activated protein kinase 14 (Homo sapiens), sequence (Q16539 whole entry): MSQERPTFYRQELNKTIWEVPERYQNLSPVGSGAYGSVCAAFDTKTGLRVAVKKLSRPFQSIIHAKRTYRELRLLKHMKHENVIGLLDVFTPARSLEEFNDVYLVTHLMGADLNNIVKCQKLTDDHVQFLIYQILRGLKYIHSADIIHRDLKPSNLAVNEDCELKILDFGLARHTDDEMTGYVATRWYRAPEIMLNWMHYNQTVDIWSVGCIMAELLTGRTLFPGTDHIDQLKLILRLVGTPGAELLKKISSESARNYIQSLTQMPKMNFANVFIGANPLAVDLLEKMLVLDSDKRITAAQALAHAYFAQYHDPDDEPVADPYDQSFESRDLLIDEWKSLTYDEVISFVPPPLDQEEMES
Calcium/calmodulin-dependent protein kinase type II subunit beta (Homo sapiens), sequence (Q13554 whole entry): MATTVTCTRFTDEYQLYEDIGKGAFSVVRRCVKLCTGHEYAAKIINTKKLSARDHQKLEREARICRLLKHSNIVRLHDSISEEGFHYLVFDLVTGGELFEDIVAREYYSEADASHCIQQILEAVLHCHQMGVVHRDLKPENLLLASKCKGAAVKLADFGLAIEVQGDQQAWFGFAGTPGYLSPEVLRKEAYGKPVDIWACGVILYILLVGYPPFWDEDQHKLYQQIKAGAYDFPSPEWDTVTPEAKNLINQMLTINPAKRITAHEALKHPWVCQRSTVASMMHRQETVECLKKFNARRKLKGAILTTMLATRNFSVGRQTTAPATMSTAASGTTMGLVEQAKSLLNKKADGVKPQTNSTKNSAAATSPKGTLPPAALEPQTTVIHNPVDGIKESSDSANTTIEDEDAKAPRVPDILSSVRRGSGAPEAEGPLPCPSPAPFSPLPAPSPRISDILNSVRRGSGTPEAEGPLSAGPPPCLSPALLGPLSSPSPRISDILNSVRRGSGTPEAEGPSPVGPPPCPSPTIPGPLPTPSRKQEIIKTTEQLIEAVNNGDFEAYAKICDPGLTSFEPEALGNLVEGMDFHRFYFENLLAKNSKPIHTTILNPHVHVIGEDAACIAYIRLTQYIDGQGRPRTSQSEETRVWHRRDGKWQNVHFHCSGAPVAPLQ
Serine/threonine-protein kinase tousled-like 2 (Homo sapiens), sequence (Q86UE8 whole entry, looked up): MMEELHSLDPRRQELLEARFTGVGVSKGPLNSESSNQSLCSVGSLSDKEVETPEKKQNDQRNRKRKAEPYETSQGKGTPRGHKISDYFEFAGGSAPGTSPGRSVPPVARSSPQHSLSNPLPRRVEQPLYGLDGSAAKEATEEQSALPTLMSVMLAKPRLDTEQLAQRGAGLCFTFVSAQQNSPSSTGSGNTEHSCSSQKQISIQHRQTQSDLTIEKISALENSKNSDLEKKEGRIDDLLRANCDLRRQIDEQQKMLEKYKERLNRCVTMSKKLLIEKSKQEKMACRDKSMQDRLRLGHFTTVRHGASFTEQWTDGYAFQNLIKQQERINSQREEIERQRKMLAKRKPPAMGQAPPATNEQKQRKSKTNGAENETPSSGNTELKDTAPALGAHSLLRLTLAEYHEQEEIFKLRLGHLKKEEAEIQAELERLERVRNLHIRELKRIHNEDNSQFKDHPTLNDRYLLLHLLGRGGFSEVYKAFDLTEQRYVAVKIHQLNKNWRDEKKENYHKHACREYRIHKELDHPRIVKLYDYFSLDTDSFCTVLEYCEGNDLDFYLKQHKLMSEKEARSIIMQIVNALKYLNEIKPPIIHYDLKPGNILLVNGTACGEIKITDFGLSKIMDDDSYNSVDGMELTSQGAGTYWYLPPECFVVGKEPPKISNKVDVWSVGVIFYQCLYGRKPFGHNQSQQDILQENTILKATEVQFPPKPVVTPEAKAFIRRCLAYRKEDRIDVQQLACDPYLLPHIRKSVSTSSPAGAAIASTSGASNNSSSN
Mast/stem cell growth factor receptor Kit (Homo sapiens), P10721 [L576P], sequence (P10721 whole entry L576P): as the sequence (P10721 whole entry D816V) above, with L576P, V816D counted along it
Ribosomal protein S6 kinase alpha-1 (Homo sapiens), sequence (Q15418 whole entry): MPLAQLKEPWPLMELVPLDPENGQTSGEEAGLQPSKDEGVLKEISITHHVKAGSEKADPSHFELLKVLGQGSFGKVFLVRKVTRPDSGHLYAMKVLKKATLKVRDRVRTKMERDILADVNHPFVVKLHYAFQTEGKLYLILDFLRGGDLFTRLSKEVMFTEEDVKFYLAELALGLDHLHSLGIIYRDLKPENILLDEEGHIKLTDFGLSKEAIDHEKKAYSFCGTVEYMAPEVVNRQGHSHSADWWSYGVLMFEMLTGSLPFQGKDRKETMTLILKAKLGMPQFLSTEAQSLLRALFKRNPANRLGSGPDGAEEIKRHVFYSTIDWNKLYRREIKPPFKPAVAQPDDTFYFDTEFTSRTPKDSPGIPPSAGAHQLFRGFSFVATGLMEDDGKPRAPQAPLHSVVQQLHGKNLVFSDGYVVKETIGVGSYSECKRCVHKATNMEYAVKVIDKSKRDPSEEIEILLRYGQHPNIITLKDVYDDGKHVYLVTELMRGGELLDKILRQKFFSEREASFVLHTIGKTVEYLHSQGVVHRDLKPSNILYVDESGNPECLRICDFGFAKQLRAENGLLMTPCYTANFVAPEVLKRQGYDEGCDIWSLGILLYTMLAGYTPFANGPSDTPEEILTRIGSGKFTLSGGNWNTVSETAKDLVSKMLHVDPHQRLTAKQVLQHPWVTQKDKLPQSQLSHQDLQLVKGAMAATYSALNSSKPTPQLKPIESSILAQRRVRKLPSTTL

C[C@@H]1CN(c2cc(-c3nn(C)c4ccc(OC5(C)CC5)cc34)ncn2)C[C@H](C)O1 [MLi-2-NC]
residual activity [1, 19]: 96%
residual activity [2, 19]: 98%
residual activity [3, 19]: 83%
residual activity [4, 19]: 100%
residual activity [5, 19]: 82%
residual activity [6, 19]: 100%
residual activity [7, 19]: 100%
residual activity [8, 19]: 39%
residual activity [9, 19]: 58%
residual activity [10, 19]: 97%
residual activity [11, 19]: 100%
residual activity [12, 19]: 94%
residual activity [13, 19]: 81%
residual activity [14, 19]: 100%
residual activity [15, 19]: 100%
residual activity [16, 19]: 85%
residual activity [17, 19]: 100%
residual activity [18, 19]: 100%

C[C@@H]1CN(c2cc(-c3n[nH]c4ccc(OC5(C)CC5)cc34)ncn2)C[C@H](C)O1 [MLi-2]
residual activity [1, 20]: 100%
residual activity [2, 20]: 76%
residual activity [3, 20]: 87%
residual activity [4, 20]: 100%
residual activity [5, 20]: 63%
residual activity [6, 20]: 100%
residual activity [7, 20]: 86%
residual activity [8, 20]: 69%
residual activity [9, 20]: 84%
residual activity [10, 20]: 100%
residual activity [11, 20]: 93%
residual activity [12, 20]: 79%
residual activity [13, 20]: 100%
residual activity [14, 20]: 78%
residual activity [15, 20]: 100%
residual activity [16, 20]: 64%
residual activity [17, 20]: 95%
residual activity [18, 20]: 100%
